ChEMBL document CHEMBL6120994, “Unravelling the potential of natural chelating agents in the control of Staphylococcus aureus and Pseudomonas aeruginosa biofilms” (Eur J Med Chem, 2025)
Active and inactive are the calls of the source. The calls are words filed in the database; no cut-off is given here.

Assays:
Pseudomonas aeruginosa [1] = assay: Antibiotic adjuvant activity against preestablished 24-hr old Pseudomonas aeruginosa ATCC 10145 assessed as potentiation of ciprofloxacin-induced antibiofilm activity by measuring reduction of biomass at 1000 ug/ml measured after 24 hrs in presence of 1/8XMIC ciprofloxacin by crystal violet staining method; assay type: functional, organism-based; details: dose 1000.0 µg/ml
HepG2 = assay: Cytotoxicity against human HepG2 cells assessed as cell mass by measuring SRB binding at 93.5 to 1000 ug/ml measured after 24 hrs by SRB assay; assay type: toxicity, cell-based; details: hepg2, 24 h, at 93.5 to 1000 µg/mL, dose 93.5-1000 µg/ml
Staphylococcus aureus [2] = assay: Antibacterial activity against Staphylococcus aureus CECT 976 assessed as inhibition of bacterial growth by measuring inhibition zone diameter at 1000 ug/ml incubated for 24 hrs in presence of ciprofloxacin by disc diffusion method (reference value: 29.25 +/- 0.96 mm); assay type: functional; details: read-out: DIZ
Staphylococcus aureus [3] = assay: Bactericidal activity against Staphylococcus aureus CECT 976 assessed as bacterial killing incubated in MHB for 24 hrs and measured following culturing on agar plate for 24 hrs; assay type: functional; details: time 48 hrs
Pseudomonas aeruginosa [4] = assay: Antibacterial activity against Pseudomonas aeruginosa ATCC 10145 assessed as inhibition of bacterial growth by measuring inhibition zone diameter at 100 ug/ml incubated for 24 hrs in presence of gentamicin by disc diffusion method (reference value: 8.25 +/-0.5 mm); assay type: functional; details: read-out: DIZ
Staphylococcus aureus [5] = assay: Inhibition of virulence production in Staphylococcus aureus CECT 976 biofilms assessed as diameter of protease halo at 1/2XMTC measured after 72 hrs in presence of 1/2XMIC tobramycin (reference value: 12.5 to 13.3 mm); assay type: functional
Pseudomonas aeruginosa [6] = assay: Antibacterial activity against Pseudomonas aeruginosa ATCC 10145 assessed as inhibition of bacterial growth by measuring inhibition zone diameter at 100 ug/ml incubated for 24 hrs in presence of tobramycin by disc diffusion method (reference value: 13.25 +/-0.5 mm); assay type: functional; details: read-out: DIZ
Pseudomonas aeruginosa [7] = assay: Bactericidal activity against Pseudomonas aeruginosa ATCC 10145 assessed as bacterial killing incubated in MHB for 24 hrs and measured following culturing on agar plate for 24 hrs; assay type: functional; details: time 48 hrs
Staphylococcus aureus [8] = assay: Inhibition of virulence production in Staphylococcus aureus CECT 976 biofilms assessed as diameter of gelatinases halo at 1/2XMTC measured after 48 hrs (reference value: 10.8 to 11.5 mm); assay type: functional
Staphylococcus aureus [9] = assay: Antibiotic adjuvant activity against Staphylococcus aureus CECT 976 assessed as potentiation of tobamycin-induced antibacterial activity by measuring tobramycin MBC at 62.5 ug/ml measured after 24 hrs by checkerboard assay (reference value: 4 ug/ml); assay type: functional; details: dose 62.5 µg/ml
Staphylococcus aureus [10] = assay: Inhibition of virulence production in Staphylococcus aureus CECT 976 biofilms assessed as diameter of siderophores halo at 1/2XMTC measured after 48 hrs (reference value: 12 mm); assay type: functional
Staphylococcus aureus [11] = assay: Inhibition of virulence production in pre-established 24 hr-old Staphylococcus aureus CECT 976 biofilms assessed as diameter of siderophores halo at 10XMTC measured after 48 hrs (reference value: 11.5 to 11.8 mm); assay type: functional
Pseudomonas aeruginosa [12] = assay: Antibiotic adjuvant activity against Pseudomonas aeruginosa ATCC 10145 assessed as potentiation of ciprofloxacin-induced antibiofilm activity by measuring reduction in biofilm cells culturability at 500 ug/ml measured after 24 hrs in presence of ciprofloxacin by visual counting method; assay type: functional, organism-based; details: dose 500.0 µg/ml
Staphylococcus aureus [13] = assay: Antibiotic adjuvant activity against Staphylococcus aureus CECT 976 assessed as potentiation of tobramycin-induced antibiofilm activity by measuring reduction in biomass production at 500 ug/ml measured after 24 hrs in presence of tobramycin by crystal violet staining method; assay type: functional, organism-based; details: dose 500.0 µg/ml
Staphylococcus aureus [14] = assay: Inhibition of virulence production in pre-established 24 hr-old Staphylococcus aureus CECT 976 biofilms assessed as diameter of gelatinases halo at 10XMTC measured after 48 hrs (reference value: 10.8 to 11 mm); assay type: functional
Cell membrane = assay: Disruption of membrane integrity in Staphylococcus aureus CECT 976 biofilm at 500 ug/ml measured after 24 hrs in presence of 1/2XMIC tobramycin by SYTO9/PI dye based epifluorescence microscopy; assay type: subcellular; details: dose 500.0 µg/ml
[15] = Cytotoxicity against human HepG2 cells assessed as metabolic activity by measuring resazurin reduction at 93.5 to 1000 ug/ml measured after 24 hrs by resazurin reduction method; assay type: toxicity, cell-based; details: at 93.5 to 1000 µg/mL, dose 93.5-1000 µg/ml, read-out: Activity
Staphylococcus aureus [16] = assay: Inhibition of virulence production in Staphylococcus aureus CECT 976 biofilms assessed as diameter of protease halo at 1XMTC measured after 72 hrs (reference value: 12 to 13 mm); assay type: functional
Staphylococcus aureus [17] = assay: Inhibition of virulence production in Staphylococcus aureus CECT 976 biofilms assessed as diameter of siderophores halo at 1/2XMTC measured after 48 hrs in presence of 1/8XMIC tobramycin (reference value: 10.5 +/-0.6 mm); assay type: functional
Staphylococcus aureus [18] = assay: Antibiotic adjuvant activity against preestablished 24 hr-old Staphylococcus aureus CECT 976 assessed as potentiation of tobramycin-induced antibiofilm activity by measuring reduction of metabolic activity of biofilm cells at 10000 ug/ml in presence of 1/4XMIC tobramycin by resazurin staining based fluorescence analysis (reference value: 37%); assay type: functional
Staphylococcus aureus [19] = assay: Antibacterial activity against Staphylococcus aureus CECT 976 assessed as inhibition of bacterial growth by measuring inhibition zone diameter at 1000 ug/ml incubated for 24 hrs in presence of tetracycline by disc diffusion method (reference value: 24 +/- 1.41 mm); assay type: functional; details: read-out: DIZ
Pseudomonas aeruginosa [20] = assay: Antibiofilm activity against preestablished 24 hr-old Pseudomonas aeruginosa ATCC 10145 assessed as reduction in metabolic activity of biofilm cells at 10XMTC by resazurin staining based fluorescence analysis; assay type: functional
Pseudomonas aeruginosa [21] = assay: Antibacterial activity against Pseudomonas aeruginosa ATCC 10145 assessed as inhibition of bacterial growth by measuring inhibition zone diameter at 100 ug/ml incubated for 24 hrs in presence of tetracycline by disc diffusion method (reference value: 2 mm); assay type: functional; details: read-out: DIZ
Staphylococcus aureus [22] = assay: Antibacterial activity against Staphylococcus aureus CECT 976 assessed as inhibition of bacterial growth by measuring inhibition zone diameter at 1000 ug/ml incubated for 24 hrs in presence of fusidic acid by disc diffusion method (reference value: 27.75 +/- 0.5 mm); assay type: functional; details: read-out: DIZ
Staphylococcus aureus [23] = assay: Inhibition of virulence production in Staphylococcus aureus CECT 976 biofilms assessed as diameter of lipases halo at 1/2XMTC measured after 48 hrs (reference value: 11.5 to 13.3 mm); assay type: functional
Staphylococcus aureus [24] = assay: Inhibition of virulence production in Staphylococcus aureus CECT 976 biofilms assessed as diameter of gelatinases halo at 1/2XMTC measured after 48 hrs in presence of 1/2XMIC tobramycin (reference value: 10 to 10.8 mm); assay type: functional
Staphylococcus aureus [25] = assay: Antibiofilm activity against preestablished 24 hr-old Staphylococcus aureus CECT 976 assessed as reduction in metabolic activity of biofilm cells at MTC by resazurin staining based fluorescence analysis; assay type: functional, organism-based

| Compound | Activity (Pseudomonas aeruginosa [1]) | Activity (HepG2) [%] | zone of inhibition at 1000 µg/mL (Staphylococcus aureus [2]) [mm] | MBC (Staphylococcus aureus [3]) [µg/mL] | zone of inhibition at 100 µg/mL (Pseudomonas aeruginosa [4]) [mm] | Activity (Staphylococcus aureus [5]) [mm] | zone of inhibition at 100 µg/mL (Pseudomonas aeruginosa [6]) [mm] | MBC (Pseudomonas aeruginosa [7]) [µg/mL] | Activity (Staphylococcus aureus [8]) [mm] | MBC (Staphylococcus aureus [9]) [µg/mL] | Activity (Staphylococcus aureus [10]) [mm] | Activity (Staphylococcus aureus [11]) [mm] | Activity (Pseudomonas aeruginosa [12]) | Activity (Staphylococcus aureus [13]) | Activity (Staphylococcus aureus [14]) [mm] | Activity (Cell membrane) | viability at 24 h [15] [%] | Activity (Staphylococcus aureus [16]) [mm] | Activity (Staphylococcus aureus [17]) [mm] | inhibition at 10000 µg/mL (Staphylococcus aureus [18]) [%] | further results |
| --- | --- | --- | --- | --- | --- | --- | --- | --- | --- | --- | --- | --- | --- | --- | --- | --- | --- | --- | --- | --- | --- |
| O=c1cc(CO)occ1O [KOJIC ACID] | inactive | > 90 | 30.8 | > 1000 | 12 | 0 | 17.2 | > 1000 | 0 | 1 | 10 | 9.3 | inactive | Active; Slight Increase Noted | 0 | inactive | > 80 | 0 | 9 | 80 | zone of inhibition at 1000 µg/mL (Staphylococcus aureus [19]): 27.2 mm; inhibition (INH) (Pseudomonas aeruginosa [20]): 70%; zone of inhibition at 100 µg/mL (Pseudomonas aeruginosa [21]): 5 mm; zone of inhibition at 1000 µg/mL (Staphylococcus aureus [22]): 26.8 mm; Activity (Staphylococcus aureus [23]): 2.8 mm; Activity (Staphylococcus aureus [24]): 0 mm; Activity (Staphylococcus aureus [25]): inactive |
| Cc1occc(=O)c1O [MALTOL] | inactive | > 90 | 33 | > 1000 | 11.8 | 0 | 16.2 | > 1000 | 0 | 1 | 10 | 10 | inactive | Active; Slight Increase Noted | 0 | inactive | > 80 | 0 | 10 | 80 | zone of inhibition at 1000 µg/mL (Staphylococcus aureus [19]): 25.8 mm; inhibition (INH) (Pseudomonas aeruginosa [20]): 70%; zone of inhibition at 100 µg/mL (Pseudomonas aeruginosa [21]): 3.5 mm; zone of inhibition at 1000 µg/mL (Staphylococcus aureus [22]): 28.2 mm; Activity (Staphylococcus aureus [23]): 3.5 mm; Activity (Staphylococcus aureus [24]): 0 mm; Activity (Staphylococcus aureus [25]): inactive |
